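Interpolation was linear, between the two tested concentrations surrounding the appropriate level; five concentrations were tested over 48 hours in 96-well plates. The concentration for full growth arrest is given as TGI.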
How the values were obtained:
Experiment in all cases: DTP human tumour cell line panel, 48 h
KM20L2 colon = tested on: KM20L2 colon
XF 498 CNS = tested on: XF 498 CNS
SNB-78 CNS = tested on: SNB-78 CNS
KM12 colon = tested on: KM12 colon
DMS 273 small cell lung = tested on: DMS 273 small cell lung
RPMI-8226 leukemia = tested on: RPMI-8226 leukemia
EKVX NSCLC = tested on: EKVX NSCLC
SK-MEL-2 melanoma = tested on: SK-MEL-2 melanoma
DLD-1 colon = tested on: DLD-1 colon
A549 NSCLC = tested on: A549 NSCLC
OVCAR-5 ovarian = tested on: OVCAR-5 ovarian
OVCAR-4 ovarian = tested on: OVCAR-4 ovarian
786-0 renal = tested on: 786-0 renal

Structure (SMILES)	TGI (KM20L2 colon)	TGI (XF 498 CNS)	TGI (SNB-78 CNS)	TGI (KM12 colon)	TGI (DMS 273 small cell lung)	TGI (RPMI-8226 leukemia)	TGI (EKVX NSCLC)	TGI (SK-MEL-2 melanoma)	TGI (DLD-1 colon)	TGI (A549 NSCLC)	TGI (OVCAR-5 ovarian)	TGI (OVCAR-4 ovarian)	TGI (786-0 renal)
CC(C(=O)OCc1ccccc1)N(Cc1ccccc1)Cc1ccccc1 (centres undefined)	> 100 µM	77.7 µM	> 100 µM	> 100 µM	> 100 µM	> 100 µM	> 100 µM	> 100 µM	> 100 µM	> 100 µM	> 100 µM	> 100 µM	–
O=C(NNC(=S)Nc1ccccc1)c1nsc2ccccc12	> 100 µM	–	> 100 µM	> 100 µM	69.8 µM	> 100 µM	> 100 µM	> 100 µM	–	> 100 µM	> 100 µM	> 100 µM	–
O=C(CCN1CCOCC1)/C(=C/c1ccccc1)c1ccccc1	15.1 µM	19.1 µM	21.3 µM	16.5 µM	21.4 µM	8.05 µM	23.9 µM	21.5 µM	4.04 µM	36.6 µM	30.4 µM	23.8 µM	–
COc1ccccc1OCC(COC(=O)Nc1ccccc1)OC(=O)Nc1ccccc1 (centres undefined)	> 100 µM	> 100 µM	> 100 µM	> 100 µM	> 100 µM	–	> 100 µM	67.6 µM	> 100 µM	> 100 µM	> 100 µM	> 100 µM	–
COC(=O)C1=C(OC(=O)/C(=C/c2ccccc2)c2ccc(OC)cc2)C(C(=O)OC)[C@@]2(O)[C@@H](C(=O)OC)[C@H](C)C[C@@H]1[C@@H]2C(=O)OC (some centres undefined)	–	–	–	> 100 µM	–	> 100 µM	> 100 µM	> 100 µM	–	> 100 µM	> 100 µM	> 100 µM	> 100 µM
C1=NCCNCCNCCN=Cc2ccc(cc2)OCc2cccc(n2)COc2ccc1cc2	–	–	–	> 100 µM	–	> 100 µM	> 100 µM	> 100 µM	–	> 100 µM	> 100 µM	> 100 µM	> 100 µM
O=C(COc1ccc(OCC(=O)N2C(=O)CC(=O)N(c3ccc(Cl)cc3)C2=S)cc1)N1C(=O)CC(=O)N(c2ccc(Cl)cc2)C1=S	–	–	–	41.6 µM	–	> 100 µM	> 100 µM	> 100 µM	–	> 100 µM	> 100 µM	> 100 µM	80.1 µM
Fc1cccc(F)c1C1SCc2nc3cc(Cl)c(Cl)cc3n21 (centres undefined)	–	–	–	> 100 µM	–	> 100 µM	> 100 µM	> 100 µM	–	> 100 µM	> 100 µM	> 100 µM	> 100 µM
COc1ccc(-n2c(=O)c3[nH]c(=S)[nH]c3n(-c3ccc(OC)cc3)c2=S)cc1	–	–	–	> 100 µM	–	> 100 µM	> 100 µM	> 100 µM	–	> 100 µM	> 100 µM	> 100 µM	> 100 µM
C#CC[C@@]12CC(=O)C[C@@H]1CCC1(C2)OCCO1 (tested in a mixture with another compound)	> 100 µM	> 100 µM	> 100 µM	> 100 µM	> 100 µM	> 100 µM	> 100 µM	> 100 µM	> 100 µM	> 100 µM	> 100 µM	> 100 µM	–
COc1cc(/C=C2\CC/C(=C\c3cc(OC)c(O)c(OC)c3)C2=O)cc(OC)c1O	–	–	–	4.52 µM	–	4.01 µM	16.5 µM	2.02 µM	–	> 62.1 µM	> 100 µM	6.05 µM	> 100 µM
NS(=O)(=O)c1nc(S(=O)(=O)O)c2[nH]cnc2n1	–	–	–	> 100 µM	–	> 100 µM	> 100 µM	> 100 µM	–	> 100 µM	> 100 µM	> 100 µM	> 100 µM
COc1ccc(C#Cn2nnc3ccccc32)cc1	–	–	–	> 100 µM	–	85.1 µM	> 100 µM	> 100 µM	–	> 100 µM	> 100 µM	> 100 µM	> 100 µM
CC[C@@]1(O)C(=O)OCc2c1cc1n(c2=O)Cc2c-1nc1ccc(O)cc1c2[Si](C)(C)C(C)(C)C	–	–	–	0.131 µM	–	4.77 µM	15.8 µM	0.786 µM	–	1.19 µM	2.58 µM	0.174 µM	< 0.0255 µM
CCCC[C@@H](C)/C=C1\CN2CCC[C@H]2[C@@](C)(OCc2ccccc2)[C@@H]1O	–	–	–	> 18.9 µM	–	> 23.7 µM	> 50 µM	> 50 µM	–	> 50 µM	> 50 µM	> 50 µM	> 50 µM
O=C1c2cc(Cc3ccccc3)c(=O)c(Cc3ccccc3)cc2C(=O)c2cc(Cc3ccccc3)c(=O)c(Cc3ccccc3)cc21	–	–	–	> 100 µM	–	> 100 µM	> 100 µM	> 100 µM	–	> 100 µM	> 100 µM	> 100 µM	> 100 µM
c1nc(NCCc2cnc[nH]2)c2[nH]cnc2n1	–	–	–	> 100 µM	–	> 100 µM	> 100 µM	> 100 µM	–	> 100 µM	> 100 µM	> 100 µM	> 100 µM
COc1ccccc1-n1c(=O)n(C)c(=O)n1C(C)(C)C	–	–	–	> 100 µM	–	> 100 µM	> 100 µM	> 100 µM	–	> 100 µM	> 100 µM	> 100 µM	> 100 µM
C[C@@H]1[C@@H](C)C(c2ccccc2)O[Si]1(C(C)(C)C)C(C)(C)C (some centres undefined)	–	–	–	30.6 µM	–	50.3 µM	33.4 µM	29.3 µM	–	30.3 µM	31.4 µM	> 86.1 µM	29.4 µM
Cc1nc2cc(F)c(F)cc2[nH]c1=O	–	–	–	> 100 µM	–	> 100 µM	> 100 µM	> 100 µM	–	> 100 µM	> 100 µM	> 100 µM	> 100 µM
Cc1cc(C)c2c(c1)CC1(Cc3cc(C)c(C)cc3C1=O)C2=O (centres undefined)	–	–	–	> 100 µM	–	> 100 µM	> 100 µM	> 100 µM	–	> 100 µM	> 100 µM	> 100 µM	> 100 µM
C#C[C@]1(O)CC[C@H]2[C@@H]3CCC4=C/C(=N/NC(=O)c5cccc6c(=O)c7ccccc7[nH]c56)CCC4[C@H]3CC[C@@]21C (some centres undefined)	–	–	–	> 100 µM	–	> 100 µM	> 100 µM	> 100 µM	–	> 100 µM	> 100 µM	> 100 µM	> 100 µM
C[C@]12CC[C@H]3[C@@H](CCC4=CC(=O)C=C[C@@]43OC(=O)C(F)(F)F)[C@@H]1CCC2=O	–	–	–	> 100 µM	–	> 100 µM	> 100 µM	> 100 µM	–	> 100 µM	> 100 µM	> 100 µM	> 83.5 µM
O=C(O)CCC(=O)OCN1C(=O)C2C3C=CC(C2C1=O)C1C2C(=O)N(COC(=O)CCC(=O)O)C(=O)C2C31 (centres undefined)	> 100 µM	> 100 µM	> 100 µM	> 100 µM	> 58.2 µM	52.5 µM	> 100 µM	> 100 µM	> 100 µM	> 100 µM	> 100 µM	> 100 µM	> 100 µM
CC1CC[C@@]2(OC1)O[C@H]1[C@H](O)[C@H]3[C@@H]4CC[C@H]5C[C@@H](OC6OC(CO)C(OC7OC(CO)C(O)C(OC8OCC(O)C(O)C8O)C7OC7OC(CO)C(O)C(O)C7OC7OC(CO)C(O)C(O)C7O)C(O)C6O)[C@H](O)C[C@]5(C)[C@H]4CC[C@]3(C)[C@H]1[C@@H]2C (some centres undefined)	–	–	–	> 10 µM	–	5.14 µM	> 10 µM	> 10 µM	–	> 10 µM	> 10 µM	> 10 µM	9.37 µM
N#CC1(C#N)C(C#N)(C#N)C1(C#N)C(N)=O	–	–	–	> 100 µM	–	> 100 µM	> 100 µM	> 100 µM	–	> 100 µM	> 100 µM	> 100 µM	> 100 µM
COC(=O)c1ccccc1C1CN=NC12Cc1c(ccc3c1CCC3)C2=O (centres undefined)	–	–	–	> 100 µM	–	86 µM	> 100 µM	> 100 µM	–	> 100 µM	> 100 µM	> 100 µM	> 100 µM
NNC(=O)Nc1nc2ccc(NN)cc2[nH]1	–	–	–	48.7 µM	–	26.7 µM	> 100 µM	> 100 µM	–	> 100 µM	> 100 µM	> 100 µM	> 100 µM
COc1cccc(N=N/C(=N/NC(=O)c2ccc(C)cc2)c2ccc(N(CCC#N)CCC#N)cc2OC)c1	–	–	–	> 100 µM	–	> 100 µM	37.4 µM	> 100 µM	–	> 100 µM	39.1 µM	> 100 µM	> 100 µM

From PubChem BioAssay (NCI)
